Source: the NIST ThermoML archive (doi:10.1016/j.jct.2005.01.007)
Where “and” joins values, the source holds several entries; their conditions need not be identical. Identical values can stand only once.

Tests used:
[1] = refractive index (Na D-line) (dimensionless); conditions: 298.15 K; 101.33 kPa; Liquid; Standard Abbe refractometry
[2] = 101 kPa, Liquid
[3] = xn = mol fraction of the nth substance listed; conditions: 101 kPa, Liquid

c1ccccc1 [benzene]
Conditions	refractive index
[1]	1.4979

[2]
Conditions	mass density [kg/m3]
298.15 K	873.62
328.15 K	841.52

c1ccccc1 [benzene] + CCC(=O)c1ccccc1
[3], x1 = 1
Conditions	mass density [kg/m3]
298.15 K	873.62
328.15 K	841.52

CCCCc1ccccc1 [butylbenzene]
Conditions	refractive index
[1]	1.4874

[2]
Conditions	mass density [kg/m3]
298.15 K	856.23
328.15 K	832.29

CCCCc1ccccc1 [butylbenzene] + CCC(=O)c1ccccc1
[3], x1 = 1
Conditions	mass density [kg/m3]
298.15 K	856.23
328.15 K	832.29

CCC(=O)c1ccccc1 [ethyl phenyl ketone]
Conditions	refractive index
[1]	1.5245

[2]
Conditions	mass density
298.15 K	1005.24 kg/m3 and 1005.26 kg/m3 and 1005.29 kg/m3
328.15 K	979.5 kg/m3 [middle of 4 runs]

CCC(=O)c1ccccc1 [ethyl phenyl ketone] + CCCCc1ccccc1
mass density [kg/m3], [3]
Conditions	298.15 K	328.15 K
x2 = 0	1005.29	979.54
x2 = 0.0906	989.98	964.4
x2 = 0.1842	974.56	949.13
x2 = 0.2739	960.14	934.89
x2 = 0.3688	945.31	920.21
x2 = 0.4531	932.45	907.51
x2 = 0.5519	917.76	893
x2 = 0.6164	908.4	883.77
x2 = 0.711	894.97	870.51
x2 = 0.8053	881.97	857.68
x2 = 0.9044	868.69	844.57

CCC(=O)c1ccccc1 [ethyl phenyl ketone] + CCc1ccccc1
mass density [kg/m3], [3]
Conditions	298.15 K	328.15 K
x2 = 0	1005.29	979.5
x2 = 0.1025	992.18	966.3
x2 = 0.1878	981.02	955.11
x2 = 0.2741	969.49	943.55
x2 = 0.3668	956.85	930.84
x2 = 0.4491	945.37	919.32
x2 = 0.5504	930.94	904.84
x2 = 0.6359	918.44	892.32
x2 = 0.7246	905.22	879.02
x2 = 0.831	888.99	862.68
x2 = 0.9093	876.76	850.4

CCC(=O)c1ccccc1 [ethyl phenyl ketone] + Cc1ccccc1
mass density [kg/m3], [3]
Conditions	298.15 K	328.15 K
x2 = 0	1005.26	979.48
x2 = 0.09253	995.05	969.14
x2 = 0.1872	984.09	958.07
x2 = 0.2777	973.13	946.96
x2 = 0.3634	962.24	935.91
x2 = 0.4547	950.09	923.57
x2 = 0.5572	935.66	908.94
x2 = 0.6402	923.36	896.42
x2 = 0.7203	910.9	883.78
x2 = 0.8278	893.2	865.77
x2 = 0.9099	878.86	851.18

CCC(=O)c1ccccc1 [ethyl phenyl ketone] + c1ccccc1
mass density [kg/m3], [3]
Conditions	298.15 K	328.15 K
x2 = 0	1005.24	979.46
x2 = 0.1079	995.49	969.44
x2 = 0.1982	986.83	960.49
x2 = 0.2725	979.24	952.7
x2 = 0.3691	968.74	941.82
x2 = 0.4557	958.59	931.35
x2 = 0.5205	950.57	922.98
x2 = 0.6278	936.19	907.95
x2 = 0.7441	919.01	889.82
x2 = 0.8198	906.77	876.8
x2 = 0.8966	893.38	862.6

CCc1ccccc1 [ethylbenzene]
Conditions	refractive index
[1]	1.4931

[2]
Conditions	mass density [kg/m3]
298.15 K	862.26
328.15 K	835.86

CCc1ccccc1 [ethylbenzene] + CCC(=O)c1ccccc1
[3], x1 = 1
Conditions	mass density [kg/m3]
298.15 K	862.26
328.15 K	835.86

Cc1ccccc1 [toluene]
Conditions	refractive index
[1]	1.4941

[2]
Conditions	mass density [kg/m3]
298.15 K	862.25
328.15 K	834.25

Cc1ccccc1 [toluene] + CCC(=O)c1ccccc1
[3], x1 = 1
Conditions	mass density [kg/m3]
298.15 K	862.25
328.15 K	834.25
